Results published in patent US20250262223A1, “METHODS FOR THE TREATMENT OF BIOLOGICAL AGING” (BIOVIE INC., priority 2022, published 2025).

How the values were obtained:
[1] = tested on: p-IKK beta, p-ERK, p-P38 and p-JNK (Tau phosphorylation); assay: in vitro samples: activation of inflammatory kinases and p-Tau; type: cell-based
Text: Without wishing to be bound by theory, it is believed that 17α-ethynylandrost-5-ene-3β,7β,17β-triol binds to ERK 1 and ERK 2, which decreases inflammatory activation of p-IKK beta, p-JNK, p-ERK and p-P38, thereby decreasing serine IRS1 phosphorylation, restoring tyrosine IRS1 phosphorylation and insulin sensitivity.

CpGs (DNA methylation) = assay: Illumina 850K array DNA methylation changes following 14 weeks of bezisterim treatment; type: in vivo, human; details: for decrease in DNAm: 14 weeks
Description: In this study, 23 mild cognitive impaired (“MCI”) and Alzheimer's disease (“AD”) subjects were enrolled based on Clinical Dementia Rating (“CDR”) from their Quick Dementia Rating System (“QDRS”) scale. Advanced MRI imaging (ASL, BOLD, MRS, task-based fMRI) was also performed as well as cognition and memory tests were performed (Cog12, MM SE, QDRS, MoCA). Biomarkers of the subjects were also taken (csf p-Tau, A beta, and plasma TNF) and episome analyses were performed. Finally, a biological clock analysis was performed (DNA methylation profiling).
Illumina® 850K array DNA methylation changes following 14 weeks of bezisterim treatment were sorted and the top 400 decreased CpGs (decreases >50%) were explored for correlations with changes in clinical results following treatment. Of these, 366 have CpG gene identifications.

[2] = Phase 3 trial, metabolic changes and correlations; type: in vivo, human
Description: Subjects metabolic and correlation changes were analyzed. Many of the genes associated with LOAD (late onset Alzheimer's disease) are related to cholesterol metabolism, which is decreased in AD neuron membranes. Insulin and glycemic controls are known to be involved in neurodegeneration. […] Increased mean amplitude of glycemic excursion (MAGE from CGM) increased risk of Alzheimer's disease progression. Leptin is an anti-inflammatory, neuroprotective and is decreased in AD. […] The results are described in Tables 4 and 5.
FIGS. 17A-17C illustrates graphs representing increased fasting insulin and HOMA2-% B with decreased HOMA2-% S w/o hypoglycemia. Table 10 provides additional information regarding the fasting insulin and HOMA2-% B with decreased HOMA2-% S w/o hypoglycemia.

[3] = Phase 3 imaging sub-study vMRI; type: in vivo, human; details: 23 subjects; blinded Phase 3 data, NE3107 and placebo pooled
Description: Subjects were analyzed using imaging sub-studies vMRI on 23 subjects. It was observed that the volume was increased in the hippocampus and amygdala. In addition, it was observed a decreased CGIC was correlated with decreased hippocampi volume and increased MCP-1 was correlated with increased whole cortex. The results are described in FIGS. 14A-14B and Table 6.

[4] = Phase 3 imaging sub-study FDG-PET; type: in vivo, human; details: subjects with a baseline whole cortex suvr <1.29; blinded Phase 3 data, NE3107 and placebo pooled
Description: Subjects were analyzed using a fluorodeoxyglucose (FDG)-positron emission tomography (PET) imaging scans. FDG-PET standardized uptake value ratios (“suvr”) were increased in 14/24 subjects with a baseline whole cortex suvr <1.29. […] Cholesterol increases trended with increased Cingulate suvr. The results are described in Table 7 and FIG. 15.

[5] = Phase 3 neuropsychiatric inventory; type: in vivo, human; details: blinded Phase 3 data, NE3107 and placebo pooled
Description: Subjects were analyzed for neuropsychiatric inventory. […] An improvement in appetite was also correlated with decreased Cog12, CDR SB and ADCOMS, with increased Alzheimer's disease. A decrease in anxiety was correlated with an increase ADL and decreased CGIC. Sleep improvement was correlated with a decrease in CGIC and decreased in TNFα. The results are described in Table 8 and FIGS. 16A-16B.

Phase 3 adverse effects = type: in vivo
[6] = tested on: extracellular signal-regulated kinase; details: cited from earlier work
[7] = tested on: ERK- and NF-κB-stimulated inflammatory mediators, including TNF-α; details: without inhibiting their homeostatic functions; cited from earlier work
[8] = cited from earlier work
[9] = P < 0.0001, blinded Phase 3 data, NE3107 and placebo pooled
[10] = blinded Phase 3 data, NE3107 and placebo pooled

C#C[C@]1(O)CC[C@H]2[C@@H]3[C@@H](O)C=C4C[C@@H](O)CC[C@]4(C)[C@H]3CC[C@@]21C [NE3107, 17α-ethynylandrost-5-ene-3β,7β,17β-triol]
Akt inhibition of GSK 3beta [1]: increased Akt inhibition of GSK 3beta | activation of inflammatory p-IKK beta, p-ERK, p-P38 and p-JNK ([1]; in vitro samples): decreased activation | p-Tau ([1]; in vitro samples): decreased p-Tau | DNA methylation decrease of the top 400 decreased CpGs (CpGs (DNA methylation); 14 weeks of treatment): > 50% | decrease in DNAm (CpGs (DNA methylation); HLA-L): 56% | decrease in DNAm (CpGs (DNA methylation); KCNQ1DN): 51% | decrease in DNAm (CpGs (DNA methylation); SLC26A1): 55% | Hypoglycemia ([2]; Increased Fasting Insulin: No, blinded Phase 3 data): 2 | Hypoglycemia ([2]; Increased Fasting Insulin: Yes, blinded Phase 3 data): 0 | HOMA2-% B, Change from Baseline [2, 9]: +13.5%, * | HOMA2-% S, Change from Baseline [2, 9]: −21.2%, * | Insulin, Change from Baseline [2, 9]: +1.9 μlU/mL,* | Cholesterol, Change from Baseline [2, 10]: +3.0 mg/dL | Leptin, V10 median [2, 10]: 29.2 ng/mL | Leptin DNAm ([2]; in vivo): increase | MAGE, Change from Baseline ([2]; mean amplitude of glycemic excursion from CGM, blinded Phase 3 data, NE3107 and placebo pooled): -0.57 mg/dL | Hypoglycemia ([2]; with increased insulin and HOMA2-% B and decreased HOMA2% insulin sensitivity, blinded Phase 3 data): no cases of hypoglycemia | vMRI amygdala volume [3]: increased | vMRI hippocampus volume [3]: increased | subjects with increased FDG-PET standardized uptake value ratios (suvr) [4]: 14/24 | neuropsychiatric inventory, overall improvement in sleep ([5]; p<0.0001): −1.0 | neuropsychiatric inventory, overall improvement in appetite ([5]; p<0.023): −1.0 | subjects discontinued due to a reported AE (Phase 3 adverse effects; 10 subjects of 439 enrolled, blinded, NE3107 and placebo pooled): 2.3% | serious AEs (Phase 3 adverse effects; 12, blinded, NE3107 and placebo pooled): 2.7% | related AEs (Phase 3 adverse effects; 43, blinded, NE3107 and placebo pooled): 9.8% | subjects who experienced 1 or more AEs (Phase 3 adverse effects; 156 of 439 subjects, blinded, NE3107 and placebo pooled): 35.5% | serious AEs that resulted in death (Phase 3 adverse effects; count, not known whether on IP or placebo): 1 | binding to extracellular signal-regulated kinase [6]: binds | inhibition of inflammation-driven ERK- and NF-κB-stimulated inflammatory mediators, including TNF-α [7]: selectively inhibit | blood-brain permeability [8]: blood-brain permeable
